Measured values: PMC12084062, “Integrating in vitro and in silico approaches for exploring antidiabetic potential of dimethyl and thiomethyl indolinone derivatives” (PLOS One, 2025)
In brackets after ≈: the same amount, converted by molar mass. Several values for one entry are separate records, joined by “and”; a condition that tells them apart may be missing. Identical values can stand only once.

Experiments:
Assay type in all cases: biochemical
protein glycation = assay: Protein glycation assay; conditions: in vitro
Procedure: Briefly, 50 µl of protein solution in distil water was added to 10 µl of glyceraldehyde solution in black microplates. The plates were sealed and incubated at 37 °C for 24 h. After incubation, test compound solutions were then added. Blank containing distilled water served as a negative control (untreated), while Rutin as a positive control. The fluorescence was measured at 370 nm (excitation), and 440 nm (emission). The percentage inhibition was calculated using the following formula:
Percentinhibition=1−fluorescenceoftestwell/fluoresecenceofnegativecontrolx100

[1] = target: human recombinant DPP-IV enzyme (Homo sapiens, UniProt P27487); assay: DPP-IV inhibition assay; conditions: in vitro; read-out: IC50 against DPP-IV (converted)
Procedure: The assay was carried out according to the established method with slight modification. Various concentrations of the synthesized compounds were added to human recombinant DPP-IV enzyme solution in respective wells of a 96-well plate. After incubation, pNA substrate (Gly-Pro-pNA) dissolved in Tris buffer was added to initiate the reaction and further incubated. After incubation, acetic acid solution was added to stop the reaction and the absorbance was recorded. The percentage inhibition was calculated by using the following equation:
Percentinhibition=1−(absorbanceofthetestwell/absorbanceoftheuntreatedcontrol)x100

α-amylase = assay: In vitro α-amylase inhibition; conditions: for maximum inhibition of α-amylase: at 1000 μg/mL; for IC50 against α-amylase: in vitro
Procedure: The standard protocol of in vitro α-amylase inhibition was performed according to Naeem et al. 70 µL of a 50 mM phosphate buffer (pH 6.0) were combined with 100 µL of the reaction solution. […] (0.057 units) of an enzyme, and 50 µL of the compound being examined was added to the solution. After being thoroughly blended, a 10-minute pre-incubation at 25 °C was carried out. The absorbance of the resulting mixture was measured at a wavelength of 400 nm. Further, a solution equal to 10 µL a 0.5 mM concentration of p-nitrophenyl glucopyranoside was added to the solution, and re-incubation carried out at a 25 °C temperature. The absorbance of the solution was measured at a wavelength of 400 nm after incubation.

Row | SMILES | IC50 against protein glycation (protein glycation) [µg/mL] | IC50 [1] [µM] | maximum inhibition of α-amylase (α-amylase) [%] | IC50 against α-amylase (α-amylase)
1 | C[C@@H]1O[C@@H](OC[C@H]2O[C@@H](Oc3c(-c4ccc(O)c(O)c4)oc4cc(O)cc(O)c4c3=O)[C@H](O)[C@@H](O)[C@@H]2O)[C@H](O)[C@H](O)[C@H]1O [Rutin, reference compound] | 20.780 (≈ 34 µM) |  |  | 
2 | Cc1ccc(/C=C2/C(=O)Nc3cc(Cl)ccc32)c(C)c1 [Compound 1, (E)-3-(2,4-Dimethylbenzylidene)-6-chloroindolin-2-one] | 210.592 (≈ 742 µM) | 110 | 80 | 32.917 µg/mL (≈ 116 µM)
3 | CSc1ccc(/C=C2/C(=O)Nc3cc(Cl)ccc32)cc1 [Compound 2, (E)-3-(4-(Methylthio)benzylidene)-6-chloroindolin-2-one] | 341.551 (≈ 1130 µM) | 156 | 75 | 42.691 µg/mL and 42.69 µg/mL
